Test results as given in patent publication US7915257B2, “Use of triazinetrione sulfones for combating coccidiosis” (Bayer Animal Health GmbH, priority 2000, dated 2011).
Like-named read-outs stand apart in the source and are kept apart here.

How the values were obtained:
Isospora suis [1] = settings: experimentally infected piglets; cited from earlier work
[2] = Acute oral toxicity (LD50 rat, oral); type: in vivo; settings: for NOEL: LD50 rat, oral investigation; for LD50 rat, oral: printed in column Dosage (NOEL)
Experimental: (§1) The following toxicity data were determined in accordance with OECD/GLP guidelines, in particular OECD 414, 401 and 408. The investigations of the teratogenicity of the compounds was carried out in accordance with the US guidelines—“Teratogenicity study”, Guidelines for Registering Pesticides in the U.S.A., U.S. Environmental Protection Agency, Hazard Evaluation: Human and 10 Domestic Animals. U.S. Federal Register, Vol. 43, paragraph 163.83-3, adopted November 1982.

[3] = tested on: Eimeria tenella, E. maxima and E. acervulina; assay: Efficacy of ponazuril on artificially induced mixed infection of chickens, cage housing; type: in vivo
Experimental: Groups each of 44 birds (4 replicates per treatment of 11 birds in each case) were formed and, on day 14, infected with sporulated oocysts. Ponazuril was administered each day on day 10-24 or 17-24. Three dosages in the feed were used in both treatment periods: 5 ppm, 10 ppm and 20 ppm. The result of the treatment was determined by various clinical and parasitological parameters, including the mortality caused by the coccidiosis and the oocyst excretion in the faeces.

[4] = in vivo
Experimental: as §1

[5] = tested on: Eimeria spp. (principal species E. ovinoidalis and E. crandallis); assay: Field trial, treatment of natural coccidiosis infections of grazing lambs; type: in vivo, Sheep; settings: 5% w/v suspension as drench on day 7; toltrazuril 20 mg/kg, ponazuril 10 and 20 mg/kg; low infection pressure
Experimental: B. Field Trial of the Efficacy of Ponazuril Compared with Toltrazuril for the Treatment of Natural Infections of Grazing Lambs with Coccidiosis:
The aim of the trials was to compare toltrazuril and ponazuril for efficacy on natural infections with pathogens of the Eimeria family.
The active ingredients were compared in three consecutive experiments: • Experiment 1: untreated control—toltrazuril 20 mg/kg—ponazuril 20 mg/kg • Experiment 2: untreated control—ponazuril 20 mg/kg • Experiment 3: untreated control—toltrazuril 20 mg/kg—ponazuril 10 mg/kg.
The oocyst excretion and the consistency of the faeces were used as main parameters. The weight of the stock was likewise checked occasionally.

Isospora suis [6] = settings: coccidiosis (Isospora suis) in pigs; cited from earlier work

| Compound | prevention of disease (Isospora suis [1]) | NOEL [2] | LD50 rat, oral [2] | NOEL ([4]; dog) | NOEL ([4]; rabbit) | NOEL ([4]; rat) | NOEL ([4]; rat, 90 days) | efficacy (oocyst excretion, consistency of the faeces) [5] | also measured |
| --- | --- | --- | --- | --- | --- | --- | --- | --- | --- |
| CCCc1ncc(C[n+]2ccccc2C)c(N)n1 [amprolium] | not possible to prevent disease |  |  |  |  |  |  |  |  |
| O=C1OCCN1/N=C/c1ccc([N+](=O)[O-])o1 [furazolidone] | not possible to prevent disease |  |  |  |  |  |  |  |  |
| CC[C@@]1([C@@H]2O[C@@H]([C@H]3O[C@@](O)(CO)[C@H](C)C[C@@H]3C)C[C@@H]2C)CC[C@H]([C@]2(C)CC[C@]3(C[C@H](O)[C@@H](C)[C@@H]([C@@H](C)[C@@H](OC)[C@H](C)C(=O)O)O3)O2)O1 [monensin] | not possible to prevent disease |  |  |  |  |  |  |  |  |
| Cc1cc(-n2c(=O)[nH]c(=O)n(C)c2=O)ccc1Oc1ccc(S(=O)(=O)C(F)(F)F)cc1 [ponazuril] |  | 5000 mg/kg of body weight | >5000 mg/kg of body weight | 8.3 mg/kg of body weight | 30 mg/kg of body weight | 90 mg/kg of body weight | 11.2 mg/kg of body weight | completely effective | control of the infection ([3]; 5, 10 and 20 ppm in the feed, daily on day 10-24 or 17-24, infection day 14): possible to control the infection with all dosages and treatment schedules; parasitological findings (oocyst excretion and number of lesions) ([3]; early start of the treatment): reduced the parasitological findings significantly; technical parameters (body weight gain and feed conversion) ([3]; early start of the treatment): improved the technical parameters; dosage with best results ([3]; highest dosage, 20 mg of ponazuril in the feed (approx. 3.5 mg/kg of body weight and day)): best results |
| Cc1cc(-n2c(=O)[nH]c(=O)n(C)c2=O)ccc1Oc1ccc(SC(F)(F)F)cc1 [toltrazuril] |  | <1000 mg/kg of body weight | 1600-5000 mg/kg mg/kg of body weight | 1.5 mg/kg of body weight | 2.0 mg/kg of body weight | 1.0 mg/kg of body weight | 1.1 mg/kg of body weight | completely effective | suitability for treating coccidiosis (Isospora suis [6]): suitable for treating coccidiosis |
